The results in this text go back to patent US5064860A, “Method of inhibiting superoxide generation” (G. D. Searle & Co., priority 1990, dated 1991).

Test [1] deals with FMLP-stimulated human neutrophils. In words: Human neutrophil superoxide generation, FMLP-stimulated (cytochrome C reduction). Conditions: for IC50: read-out: Inhibition of FMLP Induced Superoxide IC50. Type of test: cell-based. As for the experimental part: Human neutropil suproxide generation: Superoxide generation by formyl-methionyl-leucyl-phenylalanine (FMLP)-stimulated neutrophils was quantitated by the reduction of cytochrome C (Badwey, J. A., Curnutte, J. T. and Karnovsky, M. L., cis-Polyunsaturated fatty acids induce high levels of superoxide production by human neutrophils. J. Biol. Chem. 256: 12640-12643, 1981.) To 5 million neutrophils in 2.85 ml of Krebs-Ringer phosphate buffer, pH 7.2, 50 μl of inhibitor (in 10% DMSO/buffer), and 50 ul ferricytochrome C (5 mM, stock) were added and preincubated for 3 minutes at 37° C. Absorption measurements at 550 nm were recorded at start of preincubation. Fifty ul FMLP (6 uM, stock) was added to initiate reaction. A plateau was reached within 3 minutes and this reading--initial reading (before addition of FMLP) was used to calculate nanomoles of superoxide generated based on a molar extinction coefficient of 2.1×10^4 cm^-1 mole^-1.
Isolation of human neutrophils: Human neutrophils were isolated from freshly drawn blood of healthy donors. Two ml of 5% dextran (MW 200,000-300,000) in saline was added to 10 ml aliquots of blood, mixed and placed upright for 45 min. at 37° C. Approx. 8-10 ml of the plasma-white cell suspension from the dextran sedimentation was layered on 3 ml of Ficol-paque in a ml tube and centrifuged at 400 g for 30 min. The supernate, containing plasma and platelets, was discarded by aspiration, and the pellet, containing predominantly neutrophils, was resuspended in 1 ml saline. The suspension was transferred to a clean tube, and pooled with other aliquots of blood treated similarly. The pooled suspension was centrifuged at 350 g for 5 min. and supernate discarded. The pellet was resuspended in 5 ml of 0.05% NaCl with a plastic Pasteur pipette for 25 seconds to lyse contaminating red cells, then 5 ml of 1.75% NaCl added to regain isotonicity. The red cell lysing procedure was repeated, the cells suspended in appropriate buffer (depending on assay) and counted.

A further test deals with T1, 5-lipoxygenase (Rattus norvegicus, UniProt P12527).
T1 construct: Rat Basophilic Leukemia Cell Homogenate (RBL-1) serves as a 5-lipoxygenase enzyme source; endogenous in cells; host or cells: RBL-1 (rat basophilic leukemia) cells, 100,000×g supernatant of homogenate
T1 sequence (P12527 1-673): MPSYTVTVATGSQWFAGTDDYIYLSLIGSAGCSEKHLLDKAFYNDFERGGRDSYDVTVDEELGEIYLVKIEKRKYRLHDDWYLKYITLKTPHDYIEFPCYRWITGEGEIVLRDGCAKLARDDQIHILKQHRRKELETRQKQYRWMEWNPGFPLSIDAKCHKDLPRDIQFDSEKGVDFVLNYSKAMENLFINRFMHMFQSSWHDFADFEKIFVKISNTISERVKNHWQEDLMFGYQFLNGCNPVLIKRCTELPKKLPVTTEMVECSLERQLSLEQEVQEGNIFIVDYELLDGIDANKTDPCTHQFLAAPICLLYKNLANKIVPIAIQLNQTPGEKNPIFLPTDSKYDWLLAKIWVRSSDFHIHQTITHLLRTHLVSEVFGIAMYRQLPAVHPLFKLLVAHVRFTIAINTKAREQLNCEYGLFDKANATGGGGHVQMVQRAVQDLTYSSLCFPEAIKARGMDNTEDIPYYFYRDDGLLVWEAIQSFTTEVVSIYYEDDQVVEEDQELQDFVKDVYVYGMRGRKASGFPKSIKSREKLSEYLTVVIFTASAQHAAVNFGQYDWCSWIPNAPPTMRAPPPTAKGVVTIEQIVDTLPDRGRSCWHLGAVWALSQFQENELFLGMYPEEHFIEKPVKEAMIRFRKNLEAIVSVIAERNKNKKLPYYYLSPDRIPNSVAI
As to the kind of experiment: Inhibition of 5-lipoxygenase, in vitro (5-HETE synthesis from [1-14C]-arachidonic acid, RBL-1 supernatant). It is filed as biochemical. The following applies: for IC50: RBL-1 100,000×g supernatant. As to the method:
Inhibition of 5-lipoxygenase, in vitro:
anti-inflammatory, anti-allergy activities.
The 100,000×g supernatant fraction of Rat Basophilic Leukemia Cell Homogenate (RBL-1) serves as a 5-lipoxygenase enzyme source. The enzyme is incubated with [1-^14 C)-arachidonic acid and Ca++ in the presence and absence of test compound. The product of 5-lipoxygenase, 5-hydroxyeicosatetraenoic acid (5-HETE), is separated by thin-layer chromatography and measured by radioactivity. A compound inhibiting 5-HETE synthesis by 30% or more is considered active at that concentration.

Setting [2] is: Neutrophil, human neutrophils, FMLP.

Entries after “also recorded” stand apart in the source; their conditions may differ. Like-named read-outs stand apart in the source and are kept apart here.

As to `C[C@H](Sc1cc(C(C)(C)C)c(O)c(C(C)(C)C)c1)[C@@H](C)OCC(=O)O` (relative stereo) [Example 9, 11, (±)[2S*-[[3,5-bis(1,1-dimethyl-ethyl)-4-hydroxyphenyl]thio]-1R*-methylpropoxy]acetic acid], the figures for the IC50 (in test [1] (setting [2]); at 5-lipoxygenase) were 11 µM and 4.9 µM, respectively.

For `C[C@@H](OCC(=O)O)[C@H](C)[S+]([O-])c1cc(C(C)(C)C)c(O)c(C(C)(C)C)c1` (relative stereo) [Example 12, (±)[2S*-[[3,5-bis(1,1-dimethylethyl)-4-hydroxyphenyl]sulfinyl]-1R*- methylpropoxy]acetic acid], the half-maximal inhibitory concentration (IC50) in test [1] (setting [2]) was about 50 µM. Further, at 5-lipoxygenase, the inhibition at 100 µM worked out at 12%.

As for `C[C@@H](OCC(=O)O)[C@H](C)S(=O)(=O)c1cc(C(C)(C)C)c(O)c(C(C)(C)C)c1` (relative stereo) [Example 13, (±)[2S*-[[3,5-bis(1,1-dimethylethyl)-4-hydroxyphenyl]sulfonyl]-1R*- methylpropoxy]acetic acid], the IC50 in test [1] (setting [2]) is about 30 µM. Besides, at 5-lipoxygenase, 100 µM produced 4% inhibition.

As for `C[C@H](Sc1cc(C(C)(C)C)c(O)c(C(C)(C)C)c1)[C@@H](C)OCC(=O)O` (single isomer, unassigned) [Example 17, (-)[2S*-[[3,5-bis(1,1-dimethylethyl)-4-hydroxyphenyl]thio]-1R*-methylpropoxy]acetic acid], the half-maximal inhibitory concentration (IC50) was 10 µM in test [1] (human neutrophils, FMLP) and 4.3 µM against 5-lipoxygenase.

In the case of `C[C@H](Sc1cc(C(C)(C)C)c(O)c(C(C)(C)C)c1)[C@@H](C)OCC(=O)O` (single isomer, unassigned) [Example 18, (+)[2S*-[[3,5-bis(1,1-dimethylethyl)-4-hydroxyphenyl]thio]-1R*-methylpropoxy]acetic acid], the figures for the IC50 (in test [1] (setting [2]); against 5-lipoxygenase) were 10 µM and 3.5 µM, respectively.

Take `CC(C)(C)c1cc(SCCSCC(=O)O)cc(C(C)(C)C)c1O` [Example 4, 5, [[2-[[3,5-bis(1,1-dimethylethyl)-4-hydroxyphenyl]thio]ethyl]thio]aceticacid]: the IC50 in test [1] (setting [2]) was 5 µM; at 5-lipoxygenase, 3.3 µM.

For the molecule `CN(CCc1ccccn1)C(=O)CCSc1cc(C(C)(C)C)c(O)c(C(C)(C)C)c1` [Formula IV, reference compound], the activation at 5 µM in test [1] (Homo sapiens, Neutrophil, at 5 μm, read-out: increase in superoxide generated by neutrophils) came to 50%. Besides, in test [1] (Homo sapiens, Neutrophil, at 10 μm, read-out: increase in superoxide generated by neutrophils), the activation at 10 µM was 227%. Besides, in test [1] (human neutrophils, FMLP), the “FMLP Induced Superoxide, result in words” value was “Stimulates; also recorded: did not inhibit superoxide generation”. For the same molecule, on 5-lipoxygenase, the “5-lipoxygenase inhibition, result in words” value is “inhibited 5-lipoxygenase” and the IC50 was 0.32 µM.
